Converted amounts (≈) assume the structure as drawn. Where two headings read alike, the source gives them in different places.
Columns and labels:
[1] = tested on: CLB70 cell line (canine chronic B-cell lymphocytic leukemia); test: MTT assay, antiproliferative activity against CLB70; format: cell-based; settings: for IC50: Canis lupus familiaris, CLB70, 72 h of exposure, MTT, mean ± SD; for SI CLB70: ratio IC50 NIH/3T3 / IC50 CLB70
Description: (§1) The CLB70 cell line (canine chronic B-cell lymphocytic leukemia) was established at the Department of Pharmacology and Toxicology, Wrocław University of Environmental and Life Sciences. The CLBL-1 cell line (canine B-cell lymphoma) was kindly provided by Dr. Barbara C. Rütgen from the Institute of Immunology, Department of Pathobiology, University of Veterinary Medicine, Vienna. The T-24 (human bladder carcinoma), Caco-2 (human colorectal adenocarcinoma), and NIH/3T3 (mouse embryonic fibroblasts) cell lines were purchased from the American Type Culture Collection (ATCC, Rockville, MD, USA).
(§2) Cell cultures were maintained in their respective growth media, with fetal bovine serum (FBS) concentrations ranging from 10% to 20%, depending on the cell line. Penicillin-streptomycin (PS) and L-glutamine (L-Glu) were consistently added at 1% each to all media. CLB70 cells were cultured in RPMI ADVANCE medium supplemented with 20% FBS, while CLBL-1 cells were maintained in RPMI-1640 medium with 20% FBS. T-24 cells were cultured in McCoy′s 5A medium with 10% FBS, and Caco-2 cells in Eagle′s Minimum Essential Medium (EMEM) with 20% FBS. NIH/3T3 cells were maintained in high-glucose DMEM (DMEM HG) with 10% FBS. All cell cultures were grown in T-75 flasks under a humidified atmosphere at 37 °C and 5% CO2 and passaged every 3 days to maintain optimal cell density (70–80% confluence).
(§3) Stock solutions used in the experiments were freshly prepared for each trial by dissolving the tested compounds in biological-grade DMSO. These stock solutions were then diluted with the culture medium appropriate for each specific cell line to achieve the desired final concentrations, which ranged from 3.125 to 100 µM. The final DMSO concentration in each well was maintained below 1%, a level generally considered non-toxic to cells. The MTT assay was employed to evaluate the antiproliferative and cytotoxic effects of the compounds on cancer cell lines, following a previously described protocol with minor modifications. Cells were seeded in 96-well plates at the following densities: 1.5 × 10^4 cells/mL (NIH/3T3), 2 × 10^4 cells/mL (T-24, Caco-2), and 3 × 10^5 cells/mL (CLB70, CLBL-1). Each plate included control wells with untreated cells and wells with vehicle controls (culture medium specific to each cell line).
(§4) After 72 h of treatment with the tested compounds, 10 µL of 3-(4,5-dimethylthiazol-2-yl)-2,5-diphenyltetrazolium bromide (MTT) solution (5 mg/mL) was added to each well. The cells were subsequently incubated with MTT for an additional 3 h to allow the formation of formazan crystals. Following this, 40 µL of lysis buffer (composed of 46 g sodium dodecyl sulfate, 150 mL dimethylformamide, and 183.2 mL Milli-Q water) was added to each well to dissolve the formazan. After a 24 h incubation at room temperature, the optical density (OD) of the resulting formazan product was measured using a spectrophotometric microplate reader (Spark, Tecan, Männedorf, Switzerland) at 570 nm.
(§5) The results were determined from three independent experiments (four wells each) and presented as mean IC50 value ± SD from at least […], each performed in quadruplicate. IC50 values (the concentration of the compound required to inhibit 50% of cell growth) were calculated from dose–response curves.

[2] = tested on: CLBL-1 cell line (canine B-cell lymphoma); test: MTT assay, antiproliferative activity against CLBL-1; format: cell-based; settings: for IC50: Canis lupus familiaris, CLBL-1, 72 h of exposure, MTT, mean ± SD; for SI CLBL-1: ratio IC50 NIH/3T3 / IC50 CLBL-1
Description: as §1, §2, §3, §4, §5

[3] = tested on: CaCo-2 (human colorectal adenocarcinoma); test: MTT assay, antiproliferative activity against CaCo-2; format: cell-based; settings: for IC50: Homo sapiens, Caco-2, 72 h of exposure, mean ± SD; for IC50 / antiproliferative activity against CaCo-2 (in words): MTT; for antiproliferative activity against CaCo-2 (in words): 72 h, up to 100 µM; for SI CaCo-2: ratio IC50 NIH/3T3 / IC50 CaCo-2
Description: as §1, §2, §3, §4, §5

[4] = tested on: NIH/3T3 (mouse embryonic fibroblasts); test: MTT assay, normal cell line NIH/3T3; format: cell-based; settings: NIH3T3, 72 h of exposure
Description: as §1, §2, §3, §4, §5

[5] = tested on: T-24 (human bladder carcinoma); test: MTT assay, antiproliferative activity against T-24; format: cell-based; settings: for antiproliferative activity against T-24 (in words): 72 h, up to 100 µM; for antiproliferative activity against T-24 (in words) / IC50: MTT; for IC50: Homo sapiens, 72 h of exposure, mean ± SD; for SI T-24: ratio IC50 NIH/3T3 / IC50 T-24
Description: as §1, §2, §3, §4, §5

[6] = Quantitative hemolysis assay on red blood cells; format: cell-based; settings: human, pH 7.4; 72 h incubation, highest concentration (200 μM)
Method: To evaluate the hemolytic activity and cytotoxicity of the tested compounds, a quantitative hemolysis assay was conducted using human red blood cells (RBCs), following the method described by Pruchnik et al., with minor modifications.
RBCs were obtained from healthy donors through the Blood Donation Center in Wrocław. […] The collected RBCs were gently resuspended and washed three times with cold isotonic phosphate-buffered saline (PBS, pH 7.4) to remove plasma and cellular debris.
All tested compounds were dissolved in biological-grade DMSO. A series of working solutions was prepared by diluting the stock solutions to final concentrations of 6.25, 12.50, 25, 50, 100, and 200 μM. […] Control samples contained no tested compounds, while vehicle control samples contained DMSO at the same concentration as the treated samples. Positive control samples (A100%) were prepared by inducing complete hemolysis with Milli-Q water. All experiments were performed in triplicate, with three independent replicates for each condition.
The erythrocyte suspension was adjusted to a final hematocrit of 1.2% in all test tubes, with a total sample volume of 1 mL. Samples were incubated at 37 °C under static conditions for 2, 24, and 72 h to assess both short- and long-term cytotoxic effects.
Following incubation, all samples were centrifuged at 5000 rpm for 3 min at room temperature. The supernatants were carefully transferred to a 96-well plate, and the absorbance of free hemoglobin was measured at 540 nm using a UV-Vis microplate spectrophotometer (EPOCH, BioTek, Santa Clara, CA, USA). The degree of in vitro hemolysis was calculated based on the amount of released hemoglobin relative to that in the completely hemolyzed positive control sample, according to the following formula: H[%]=As/A100%×100%, where H [%] is the percentage of erythrocyte hemolysis, As is absorbance of hemoglobin in supernatant at 540 nm, and A100% refers to the absorbance of hemoglobin in the supernatant following complete hemolysis of the erythrocytes.

[7] = tested on: CLB-70 line; settings: cited from earlier work
[8] = tested on: CLBL-1; settings: 72 h of incubation; cited from earlier work
[9] = tested on: Caco-2 line; set-up: method as in PMID 33198146; settings: 48 h of incubation; cited from earlier work
[10] = tested on: T-24 cell line; set-up: method as in earlier work; settings: 48 h of incubation; cited from earlier work

IC50 [1]	IC50 [2]	IC50 [3]	IC50 [5]	SMILES	SI CLB70 [1]	SI CLBL-1 [2]	IC50 [4]	antiproliferative activity against T-24 (in words) [5]	SI T-24 [5]	hemolysis at 72 h, 200 µM [6]	antiproliferative activity against CaCo-2 (in words) [3]	SI CaCo-2 [3]	IC50 ([7]; previously studied analog, reference not given, read-out: IC50 CLB70)	IC50 [8]	IC50 Caco-2 [9]	IC50 ([7]; 48 h of incubation)	IC50 [10]
69.7 ± 13.7 µM	73.6 ± 8.8 µM	> 100 µM	98.1 ± 10.4 µM	COc1cc([C@@H]2CC(=O)O[C@@H]2C(C)I)ccc1O (relative stereo) [10a, Cis-4-(4′-Hydroxy-3′-methoxyphenyl)-5-(1-iodoethyl)dihydrofuran-2-one]	>1.4	>1.4	> 100 µM	demonstrated activity	>1.0	–	–	–	–	–	–	–	–
71.5 ± 7.5 µM	46.3 ± 4.1 µM	> 100 µM	63.4 ± 6.2 µM	COc1cc([C@@H]2CC(=O)O[C@H]2C(C)I)ccc1O (relative stereo) [10b, Trans-4-(4′-Hydroxy-3′-methoxyphenyl)-5-(1-iodoethyl)dihydrofuran-2-one]	>1.4	>2.2	> 100 µM	demonstrated activity	>1.6	11%	–	–	–	–	–	–	–
76.2 ± 5.3 µM	63.2 ± 1.6 µM	76.4 ± 10 µM	> 100 µM	COc1cc([C@@H]2CC(=O)O[C@@H]2C(C)Br)ccc1O (relative stereo) [11a, Cis-5-(1-Bromoethyl)-4-(4′-hydroxy-3′-methoxyphenyl)dihydrofuran-2-one]	>1.3	>1.6	> 100 µM	inactive	–	10.3%	moderate activity	>1.3	–	–	–	–	–
75.2 ± 6.3 µM	76.7 ± 11.5 µM	88.1 ± 4.4 µM	> 100 µM	COc1cc([C@@H]2CC(=O)O[C@@H]2C(C)Cl)ccc1O (relative stereo) [12a, Cis-5-(1-Chloroethyl)-4-(4′-hydroxy-3′-methoxyphenyl)dihydrofuran-2-one]	>1.3	>1.3	> 100 µM	inactive	–	–	moderate activity	>1.1	–	–	–	–	–
–	–	–	–	Cc1ccc(C)c([C@H]2CC(=O)O[C@@H](C)[C@@H]2Br)c1 (single isomer, unassigned)	–	–	–	–	–	–	–	–	106 µM	–	–	–	–
72.8 ± 2.3 µM	72.4 ± 9.4 µM	> 100 µM	48.5 ± 13.2 µM	COc1cc(C=O)ccc1O [compound 1, Vanillin]	>1.4	>1.4 ^2	> 100 µM	–	>2.1	–	inactive	–	–	–	–	–	–
–	–	–	–	COc1cccc2c1C(=O)c1c(O)c3c(c(O)c1C2=O)C[C@@](O)(C(=O)CO)C[C@@H]3O[C@H]1C[C@H](N)[C@H](O)[C@H](C)O1 [doxorubicin]	–	–	–	–	–	–	–	–	–	< 0.09 µM	2.41 µg/mL (≈ 4.43 µM)	0.07 µM	0.06 µM
71.2 ± 11.6 µM	85.7 ± 15.7 µM	72.5 ± 19.8 µM	> 100 µM	COc1cc([C@H]2CC(=O)O[C@@H](C)[C@@H]2Cl)ccc1O (racemic) [12b, 5-t-Chloro-4-r-(4′-Hydroxy-3′-methoxyphenyl)-6-c-methyltetrahydropyran-2-one]	>1.4	>1.2	> 100 µM	inactive	–	10.5%	moderate activity	>1.4	–	–	–	–	–

Reference: paper PMC12609600, “Novel Halolactones Derived from Vanillin: Design, Synthesis, Structural Characterization, and Evaluation of Antiproliferative and Hemolytic Activities” (Molecules, 2025)
